Data on two compounds can be found in patent publication US20070166772A1, “Methods for selecting compounds using antibodies with activity as antagonist, antagonist or allosteric modulators” (priority 2003, published 2007).

Test [1] concerns the target second extracellular loop of the muscarinic M2 receptor (homologue peptide) (Homo sapiens, UniProt P08172). Nature of the test: Indirect Inhibition ELISA (IIE): antibody against M2 receptor, homologue peptide and ligand in liquid phase. The following applies: FIG. 5. It counts as binding. How it is done:
The selected molecule should beside binding the parent peptide in solid phase also be able to bind it in liquid phase. The latter would mime the in vivo conformation of the parent peptide. • Coating • Corresponding peptide is dissolved extemporaneously in appropriate buffer. Peptide at calibrated concentration is coated on a highly absorbing microtitre plate. • Blocking of on-specific binding • Wash • The plate is washed with washing buffer (appendix 1). • Selected molecules to be tested on IIE • Each molecule dissolved at known concentration is distributed on the plate. Immediately different cascade concentration of the parent peptide is added to the well. This is thereafter followed by the first antibody at AD50 dilution and incubated for an appropriate time and at an optimal temperature. • Wash • The plate is washed with washing buffer (appendix 1). • Secondary antibodies • Peroxidase conjugated goat anti-rabbit antibodies diluted at appropriate dilution (appendix 2) is allowed to react with the bound polyclonal anti-GPCR antibodies for an appropriate time and at an optimal temperature. • Wash
The same protocol as mentioned above in “Example 1 ” was performed: […]
Background: ELISA stands for enzyme-linked immunosorbent assay.

For test [2], the system named is second extracellular loop of the 5-HT4 receptor (peptide C15Q). Nature of the test: Inhibition ELISA (IE): anti-peptide antibody against 5-HT4 receptor on the coated synthetic peptide C15Q. It counts as binding. The following applies: FIG. 3. The method, then:
• Coating • Corresponding peptide is dissolved extemporaneously in appropriate buffer. Peptide at calibrated concentration is coated on a highly absorbing microtitre plate. • Blocking of non-specific binding • Wash • The plate is washed with washing buffer (appendix 1). • Molecules to be screened on the peptide • Each molecule is dissolved and distributed on the plate.
Each molecule which is able to decrease the absorbance at 405 nm at around 20% from its control value is selected for the DMAE.
Five μg/ml of corresponding peptide (C15Q) was coated on a microtitre plate (Falcon, 96 wells). After blocking nonspecific binding sites with blocking buffer, polyclonal anti-C15Q antibodies at decreasing serial dilutions were allowed to react with the peptide.
The same protocol as mentioned above in “Example 1” was performed: […]

Structures are written as SMILES.

second extracellular loop of the muscarinic M2 receptor (homologue peptide), sequence (P08172 163-182 limits assumed): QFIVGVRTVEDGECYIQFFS

`CC[N+](CC)(CC)CCOc1cccc(OCC[N+](CC)(CC)CC)c1OCC[N+](CC)(CC)CC` [gallamine]: in test [1], the “competition with the homologue peptide for binding the anti-peptide antibodies” value is “able to compete with the homologue peptide and hinder the recognition between the homologue peptide and the anti-peptide in liquid phase”.

Take `NCCc1c[nH]c2ccc(O)cc12` [5-HT, serotonin]: the “inhibition of the interaction of the anti-peptide antibody raised against the 5-HT4 receptor with the corresponding synthetic peptide” value in test [2] is on record as “specifically inhibited”.
